Publication PMC12298351, “Novel 3,19-(N-Phenyl-3-(4-fluorophenyl)-pyrazole) Acetal of Andrographolide Promotes Cell Cycle Arrest and Apoptosis in MDA-MB-231 Breast Cancer Cells” (Pharmaceuticals, 2025)

What was measured:
RPMI-8226 = conditions: RPMI-8226, Leukemia
UACC-257 = conditions: UACC-257, Melanoma
MCF7 = conditions: MCF7, Breast
U251 = conditions: U251, CNS
RXF 393 = conditions: RXF 393, Renal
SF-268 = conditions: SF-268, CNS
SK-OV-3 = conditions: SK-OV-3, Ovarian
K-562 = conditions: K-562, Leukemia
SK-MEL-28 = conditions: SK-MEL-28, Melanoma
OVCAR-3 = conditions: OVCAR-3, Ovarian
UACC-62 = conditions: UACC-62, Melanoma
KM12 = conditions: KM12, Colon
OVCAR-8 = conditions: OVCAR-8, Ovarian
M14 = format: cell-based; conditions: M14, Melanoma
UO-31 = conditions: UO-31, Renal
TK-10 = format: cell-based; conditions: TK-10, Renal
NCI/ADR-RES = conditions: Ovarian
SW-620 = conditions: SW-620, Colon
CAKI-1 = conditions: CAKI-1, Renal
A498 = conditions: A498, Renal
MDA-MB-468 = conditions: MDA-MB-468, Breast
IGROV1 = conditions: IGROV1, Ovarian
DU-145 = conditions: DU-145, Prostate
[1] = read-out: 50% lethal concentration (LC50)
[2] = read-out: 50% lethal concentration (LC50), Non-Small Cell Lung
[3] = read-out: 50% lethal concentration (LC50), Leukemia
[4] = read-out: 50% lethal concentration (LC50), Renal

C=C1CCC2C3(C)COC(c4cn(-c5ccccc5)nc4-c4cccc([N+](=O)[O-])c4)OC3CCC2(C)C1CC=C1C(=O)OCC1O (stereo not drawn) [1b]
Total growth inhibition (TGI) (HOP-62; HOP-62, Non-Small Cell Lung): 12.4 µM | GI50 (HOP-62; HOP-62, Non-Small-Cell Lung): 3.15 µM | CC50 (HOP-62; read-out: 50% lethal concentration (LC50), HOP-62, Non-Small Cell Lung): > 100 µM | GI50 (RPMI-8226): 2.45 µM | Total growth inhibition (TGI) (RPMI-8226): > 100 µM | CC50 (RPMI-8226; [1]): > 100 µM | GI50 (UACC-257): 1.8 µM | Total growth inhibition (TGI) (UACC-257): 3.68 µM | CC50 (UACC-257; [1]): 7.53 µM | GI50 (LOX IMVI; Melanoma): 1.72 µM | Total growth inhibition (TGI) (LOX IMVI; Melanoma): 3.34 µM | CC50 (LOX IMVI; read-out: 50% lethal concentration (LC50), Melanoma): 6.48 µM | GI50 (MCF7): 2.64 µM | Total growth inhibition (TGI) (MCF7): > 100 µM | CC50 (MCF7; [1]): > 100 µM | GI50 (U251): 1.74 µM | Total growth inhibition (TGI) (U251): 3.35 µM | CC50 (U251; [1]): 6.46 µM | Total growth inhibition (TGI) (NCI-H460; NCI-H460, Non-Small Cell Lung): 4.8 µM | GI50 (NCI-H460; NCI-H460, Non-Small-Cell Lung): 2.27 µM | CC50 (NCI-H460; read-out: 50% lethal concentration (LC50), NCI-H460, Non-Small Cell Lung): 11.3 µM | GI50 (RXF 393): 1.62 µM | Total growth inhibition (TGI) (RXF 393): 3.2 µM | CC50 (RXF 393; [1]): 6.32 µM | GI50 (SF-268): 7.65 µM | Total growth inhibition (TGI) (SF-268): > 100 µM | CC50 (SF-268; [1]): > 100 µM | GI50 (SK-OV-3): 2.08 µM | Total growth inhibition (TGI) (SK-OV-3): > 100 µM | CC50 (SK-OV-3; [1]): > 100 µM | GI50 (K-562): 2.16 µM | Total growth inhibition (TGI) (K-562): > 100 µM | CC50 (K-562; [1]): > 100 µM | GI50 (SK-MEL-28): 2.04 µM | Total growth inhibition (TGI) (SK-MEL-28): 4.06 µM | CC50 (SK-MEL-28; [1]): 8.11 µM | GI50 (OVCAR-3): 1.87 µM | Total growth inhibition (TGI) (OVCAR-3): 3.75 µM | CC50 (OVCAR-3; [1]): 7.55 µM | GI50 (UACC-62): 1.69 µM | Total growth inhibition (TGI) (UACC-62): 3.46 µM | CC50 (UACC-62; [1]): 7.06 µM | GI50 (KM12): 1.99 µM | Total growth inhibition (TGI) (KM12): 4.38 µM | Total growth inhibition (TGI) (EKVX; Non-Small Cell Lung): 7.98 µM | GI50 (EKVX; Non-Small-Cell Lung): 2.75 µM | CC50 (EKVX; [2]): > 100 µM | GI50 (OVCAR-8): 1.9 µM | Total growth inhibition (TGI) (OVCAR-8): 5.04 µM | CC50 (OVCAR-8; [1]): > 100 µM | GI50 (SR; Leukemia): 3.46 µM | Total growth inhibition (TGI) (SR; Leukemia): > 100 µM | CC50 (SR; [3]): > 100 µM | GI50 (M14): 2.08 µM | LC50 (50% lethal concentration) (M14): 9.85 µM | Total growth inhibition (TGI) (M14): 4.52 µM | GI50 (UO-31): 1.82 µM | Total growth inhibition (TGI) (UO-31): 5.46 µM | CC50 (UO-31; [1]): 35.7 µM | GI50 (TK-10): 2.22 µM | Total growth inhibition (TGI) (TK-10): 5.82 µM | CC50 (TK-10; [1]): > 100 µM | GI50 (NCI/ADR-RES): 2.98 µM | GI50 (SW-620): 2.21 µM | Total growth inhibition (TGI) (SW-620): 5.13 µM | CC50 (SW-620; [1]): > 100 µM | GI50 (CAKI-1): 2.81 µM | Total growth inhibition (TGI) (CAKI-1): > 100 µM | CC50 (CAKI-1; [1]): > 100 µM | GI50 (CCRF-CEM; Leukemia): 1.14 µM | Total growth inhibition (TGI) (CCRF-CEM; Leukemia): 5.01 µM | CC50 (CCRF-CEM; [3]): > 100 µM | GI50 (A498): 1.9 µM | Total growth inhibition (TGI) (A498): 45.4 µM | CC50 (A498; [1]): > 100 µM | GI50 (ACHN; Renal): 1.89 µM | Total growth inhibition (TGI) (ACHN; Renal): 3.62 µM | CC50 (ACHN; [4]): 6.94 µM | Total growth inhibition (TGI) (A549/ATCC; Non-Small Cell Lung): > 100 µM | GI50 (A549/ATCC; Non-Small-Cell Lung): 3.62 µM | CC50 (A549/ATCC; [2]): > 100 µM | GI50 (SN12C; Renal): 2.93 µM | Total growth inhibition (TGI) (SN12C; Renal): 10.3 µM | CC50 (SN12C; [4]): > 100 µM | GI50 (MDA-MB-468): 1.76 µM | Total growth inhibition (TGI) (MDA-MB-468): 3.52 µM | CC50 (MDA-MB-468; [1]): 7 µM | GI50 (IGROV1): 2.08 µM | Total growth inhibition (TGI) (IGROV1): 4.27 µM | CC50 (IGROV1; [1]): 8.76 µM | GI50 (DU-145): 4.11 µM | Total growth inhibition (TGI) (DU-145): 24.3 µM | CC50 (DU-145; [1]): > 100 µM
